In patent US12435095B2, “Substituted morpholines as ATR kinase inhibitors” (Shanghai Annova Biotechnology Co., Ltd., priority 2021, dated 2025):
Read-outs that look alike come from different tables or passages of the source.

System: human colon cancer LoVo cells
Experiment: Cell proliferation inhibition assay (CellTiter-Glo)
Type: cell-based
Conditions: for IC50 / Emax: Homo sapiens; for IC50: read-out: LoVo IC50; for Emax: read-out: Max Inhibition
Text: Experimental method: A CellTiter-Glo cell viability assay kit was used to test the inhibitory effect of the compounds on the in vitro proliferation of human colon cancer LoVo cells.
Experimental materials: LoVo cells (ATCC, Cat. No. CCL-29); F-12K medium (Invitrogen, Cat. No. 21127-022); fetal bovine serum (Biological Industries, Cat. No. 04-002-1A); GlutaMAX (Gibco, Cat. No. 35050-061); 0.25% trypsin-EDTA (Invitrogen, Cat. No. 25200-072); CellTiter-Glo kit (Promega, Cat. No. G7558).
Experimental procedure: (1) F-12K medium, fetal bovine serum and GlutaMAX were formulated into a complete medium for culturing LoVo cells; (2) well-grown LoVo cells were taken, digested with trypsin and transferred to a centrifuge tube, and centrifuged; the supernatant was discarded, and cells were resuspended by adding a fresh medium and counted by a Vi-CELL XR cell counter; the density of the cell suspension was adjusted to 25,000 to 30,000 cells/mL, and the cell suspension was added at 100 μL/well in a 96-well cell culture plate, while a blank control group was set up with no cells added, and the cell culture plate was incubated in a carbon dioxide incubator overnight; (3) a DMSO solution of the compound to be tested was dispensed into the above 96-well cell culture plate using an HP D300 ultra-micro sampler, with 0.5 μL of the solution per well and 10 concentrations for each compound (3× dilution), while a DMSO control group with no compound added was set up, and the plate was continued to be incubated in a carbon dioxide incubator for 96 hours; (4) the cell culture plate was taken out and equilibrated to room temperature, with 100 μL of a CellTiter-Glo reagent added to each well, and then the plate was kept away from light, shaken for 10 minutes and then incubated for 10 minutes; (5) the cell culture plate was put into EnSpire for plate reading, and the luminescence value RLU was recorded.
Data processing: (1) The inhibition rate was calculated from the luminescence values: “RLUDMSO” is the luminescence value of the DMSO control group without compound, “RLUblank” is the luminescence value of the blank control group without cells, and “RLUcompound” is the luminescence value of the compound test group, and the inhibition rate=[1−(RLUcompound−RLUblank)/(RLUDMSO−RLUblank)]×100%; (2) with curve fitting using the Excel add-on XLFit, the IC50 value was calculated.

[1] = LoVo cells, 96 hours, CellTiter-Glo

C[C@@H]1COCCN1c1nc(-c2cc(F)cc3[nH]ccc23)nc2c1ccn2S(C)(=O)=O [Compound 20, (R)-4-(2-(6-fluoro-1H-indol-4-yl)-7-(methylsulfonyl)-7H-pyrrolo[2,3-d]pyrimidin-4-yl)-3-methylmorpholine]
IC50 [1]: 490 nM
Max Inhibition [1]: 91%

C[C@@H]1COCCN1c1cc(-c2ccnc3[nH]ccc23)nc2c1ccn2S(=O)(=O)N(C)C [Compound 16, (R)—N,N-dimethyl-4′-(3-methylmorpholinyl)-1H,1′H-[4,6′-dipyrrolo[2,3-b]pyridine]-1′-sulfamide]
IC50 [1]: 1820 nM
Emax [1]: 93%

C[C@@H]1COCCN1c1cc(-c2cncc3[nH]ccc23)nc2c1ccn2S(C)(=O)=O [Compound 3, (R)-3-methyl-4-(1-(methylsulfonyl)-6-(1H-pyrrolo[2,3-c]pyridin-4-yl)-1H-pyrrolo[2,3-b]pyridin-4-yl)morpholine]
IC50 [1]: 430 nM
Max Inhibition [1]: 93%

C[C@@H]1COCCN1c1cc(-c2ccnc3[nH]ccc23)nc2c1ccn2CS(C)(=O)=O [Compound 4′, reference compound]
IC50 [1]: 2340 nM

C[C@@H]1COCCN1c1cc(-c2cccc3[nH]ccc23)nc2c1ccn2S(C)(=O)=O [Compound 2, (R)-4-(6-(1H-indol-4-yl)-1-(methylsulfonyl)-1H-pyrrolo[2,3-b]pyridin-4-yl)-3-methylmorpholine]
IC50 [1]: 500 nM
Max Inhibition [1]: 94%

CCS(=O)(=O)n1ccc2c(N3CCOC[C@H]3C)nc(-c3ccnc4[nH]ccc34)nc21 [Compound 33, (R)-4-(7-(ethylsulfonyl)-2-(1H-pyrrolo[2,3-b]pyridin-4-yl)-7H-pyrrolo[2,3-d]pyrimidin-4-yl)-3-methylmorpholine]
IC50 [1]: 290 nM
Max Inhibition [1]: 92%

CNc1nc2ccccc2n1-c1nc(N2CCOC[C@H]2C)c2ccn(S(C)(=O)=O)c2n1 [Compound 28, (R)—N-methyl-1-(4-(3-methylmorpholinyl)-7-(methylsulfonyl)-7H-pyrrolo[2,3-d]pyrimidin-2-yl)-1H-benzo[d]imidazol-2-amine]
IC50 [1]: 100 nM
Emax [1]: 92%

C[C@@H]1COCCN1c1cc(-c2cc(F)cc3[nH]ccc23)nc2c1ccn2S(C)(=O)=O [Compound 7, (R)-4-(6-(6-fluoro-1H-indol-4-yl)-1-(methylsulfonyl)-1H-pyrrolo[2,3-b]pyridin-4-yl)-3-methylmorpholine]
IC50 [1]: 420 nM
Max Inhibition [1]: 95%

COc1cc(-c2nc(N3CCOC[C@H]3C)c3ccn(S(C)(=O)=O)c3n2)c2cc[nH]c2c1 [Compound 32, (R)-4-(2-(6-methoxy-1H-indol-4-yl)-7-(methylsulfonyl)-7H-pyrrolo[2,3-d]pyrimidin-4-yl)-3-methylmorpholine]
IC50 [1]: 340 nM
Max Inhibition [1]: 95%

C[C@@H]1COCCN1c1nc(-c2nc3ccccc3[nH]2)nc2c1ccn2S(C)(=O)=O [Compound 27, (R)-4-(2-(1H-benzo[d]imidazol-2-yl)-7-(methylsulfonyl)-7H-pyrrolo[2,3-d]pyrimidin-4-yl)-3-methylmorpholine]
IC50 [1]: 620 nM
Max Inhibition [1]: 94%

C[C@@H]1COCCN1c1nc(-c2ccnc3[nH]ccc23)cc2c1ccn2S(C)(=O)=O [Compound 26, (R)-3-methyl-4-(1-(methylsulfonyl)-6-(1H-pyrrolo[2,3-b]pyridin-4-yl)-1H-pyrrolo[3,2-c]pyridin-4-yl)morpholine]
IC50 [1]: 740 nM
Max Inhibition [1]: 92%

CC(n1ccc2c(N3CCOC[C@H]3C)cc(-c3ccnc4[nH]ccc34)nc21)S(C)(=O)=O (stereo partly shown) [Compound 5′, reference compound]
IC50 [1]: 1880 nM

C[C@@H]1COCCN1c1cc(-c2ccnc3[nH]ccc23)nc2c1ccn2S(=O)(=O)C1CC1 [Compound 15, (R)-4-(1′-(cyclopropylsulfonyl)-1H,1′H-[4,6′-dipyrrolo[2,3-b]pyridin]-4′-yl)-3-methylmorpholine]
IC50 [1]: 1270 nM
Emax [1]: 94%

C[C@@H]1COCCN1c1nc(-c2cccc3[nH]ccc23)nc2c1ccn2S(C)(=O)=O [Compound 18, (R)-4-(2-(1H-indol-4-yl)-7-(methylsulfonyl)-7H-pyrrolo[2,3-d]pyrimidin-4-yl)-3-methylmorpholine]
IC50 [1]: 250 nM
Max Inhibition [1]: 92%

C[C@@H]1COCCN1c1nc(-c2cncc3[nH]ccc23)nc2c1ccn2S(C)(=O)=O [Compound 19, (R)-3-methyl-4-(7-(methylsulfonyl)-2-(1H-pyrrolo[2,3-c]pyridin-4-yl)-7H-pyrrolo[2,3-d]pyrimidin-4-yl)morpholine]
IC50 [1]: 70 nM
Max Inhibition [1]: 90%

C[C@@H]1COCCN1c1nc(-c2ccnc3[nH]ccc23)nc2c1ncn2S(C)(=O)=O [Compound 22, (R)-3-methyl-4-(9-(methylsulfonyl)-2-(1H-pyrrolo[2,3-b]pyridin-4-yl)-9H-purin-6-yl)morpholine]
IC50 [1]: 1040 nM
Max Inhibition [1]: 93%

C[C@@H]1COCCN1c1nc(-c2cc(C#N)cc3[nH]ccc23)nc2c1ccn2S(C)(=O)=O [Compound 30, (R)-4-(4-(3-methylmorpholinyl)-7-(methylsulfonyl)-7H-pyrrolo[2,3-d]pyrimidin-2-yl)-1H-indol-6-carbonitrile]
IC50 [1]: 1060 nM
Emax [1]: 93%

CC(C)S(=O)(=O)n1ccc2c(N3CCOC[C@H]3C)cc(-c3ccnc4[nH]ccc34)nc21 [Compound 14, (R)-4-(1′-(isopropylsulfonyl)-1H,1′H-[4,6′-dipyrrolo[2,3-b]pyridin]-4′-yl)-3-methylmorpholine]
IC50 [1]: 2130 nM
Emax [1]: 93%

C[C@@H]1COCCN1c1nc(-c2ccnc3[nH]ccc23)nc2c1ccn2S(=O)(=O)CCO [Compound 21, (R)-2-((4-(3-methylmorpholinyl)-2-(1H-pyrrolo[2,3-b]pyridin-4-yl)-7H-pyrrolo[2,3-d]pyrimidin-7-yl)sulfonyl)ethanol]
IC50 [1]: 710 nM
Emax [1]: 92%

C[C@@H]1COCCN1c1nc(-c2ccnc3[nH]ccc23)nc2c1ccn2S(=O)(=O)N(C)C [Compound 34, (R)—N,N-dimethyl-4-(3-methylmorpholinyl)-2-(1H-pyrrolo[2,3-b]pyridin-4-yl)-7H-pyrrolo[2,3-d]pyrimidine-7-sulfamide]
IC50 (LoVo, 96 h): 290 nM
Emax (LoVo, 96 h): 93%

C[C@@H]1COCCN1c1nc(-c2cc(Cl)cc3[nH]ccc23)nc2c1ccn2S(C)(=O)=O [Compound 31, (R)-4-(2-(6-chloro-1H-indol-4-yl)-7-(methylsulfonyl)-7H-pyrrolo[2,3-d]pyrimidin-4-yl)-3-methylmorpholine]
IC50 [1]: 570 nM
Max Inhibition [1]: 93%

Cc1cc(-c2nc(N3CCOC[C@H]3C)c3ccn(S(C)(=O)=O)c3n2)c2cc[nH]c2c1 [Compound 29, (R)-3-methyl-4-(2-(6-methyl-1H-indol-4-yl)-7-(methylsulfonyl)-7H-pyrrolo[2,3-d]pyrimidin-4-yl)morpholine]
IC50 [1]: 380 nM
Max Inhibition [1]: 94%

C[C@@H]1COCCN1c1nc(-c2ccnc3[nH]ccc23)nc2c1ccn2S(C)(=O)=O [Compound 17, (R)-3-methyl-4-(7-(methylsulfonyl)-2-(1H-pyrrolo[2,3-b]pyridin-4-yl)-7H-pyrrolo[2,3-d]pyrimidin-4-yl)morpholine]
IC50 [1]: 170 nM
Max Inhibition [1]: 93%

C[C@@H]1COCCN1c1nc(-c2cncc3[nH]ccc23)cc2c1ncn2S(C)(=O)=O [Compound 25, (R)-3-methyl-4-(1-(methylsulfonyl)-6-(1H-pyrrolo[2,3-c]pyridin-4-yl)-1H-imidazo[4,5-c]pyridin-4-yl)morpholine]
IC50 [1]: 240 nM
Max Inhibition [1]: 89%

C[C@@H]1COCCN1c1cc(-c2ccnc3[nH]ccc23)nc2c1ncn2S(C)(=O)=O [Compound 24, (R)-3-methyl-4-(3-(methylsulfonyl)-5-(1H-pyrrolo[2,3-b]pyridin-4-yl)-3H-imidazo[4,5-b]pyridin-7-yl)morpholine]
IC50 [1]: 1020 nM
Max Inhibition [1]: 92%

C[C@@H]1COCCN1c1nc(-c2ccnc3[nH]ccc23)nc2c1cnn2S(C)(=O)=O [Compound 23, (R)-3-methyl-4-(1-(methylsulfonyl)-6-(1H-pyrrolo[2,3-b]pyridin-4-yl)-1H-pyrazolo[3,4-d]pyrimidin-4-yl)morpholine]
Max Inhibition [1]: 92%
